US6423887B1, “Glyphosate tolerant fescue grass variety” (Pure Seed Testing, Inc., priority 2001, dated 2002)

How the values were obtained:
Format in all cases: in vivo, Festuca arundinacea
[1] = system: seedlings, progenies of the 23 5RU clones; assay: Greenhouse glyphosate screening of seedlings; details: one quart per acre, sprayed at the three to four leaf stage, 74 out of 150
[2] = system: cloned survivors from Coronado, Apache II and Tomahawk; assay: Glyphosate screening of vegetative clones in cell pack planting flats; details: 1 quart per acre glyphosate with WA-100, clones in cell pack planting flats, sprayed 1 month after cloning
Tomahawk RT tall fescue = assay: Glyphosate tolerance field trial, turf seeded fall 1998 near Hubbard, Oreg.; details: for Herbicide damage: scale 1-9, 9=no glyphosate damage; for Summer Stress: scale 1-9; for Turf quality (no herbicide): scale 1-9, 9=ideal quality
Experimental: (§1) The following tables show examples of field trials in which the glyphosate resistance characteristics of the Tomahawk RT variety were examined and compared to currently used tall fescue grass varieties. Grasses were seeded in the fall of 1998 near Hubbard, Oreg. and rated between November 1998 and September 1999.
(§2) 2, 1999. The score ratings are based on a scale of 1 to 9. For herbicide damage: 9 =no glyphosate damage; 8-7=10-20% yellowing; 6-5=30-40% yellowing with minor growth retardation; 4-3=50-60% yellowing with growth retardation; 2-1=70-90% yellowing with dead turf. For turf quality: 9=best turf quality, 0=dead turf.
(§3) Grasses were sprayed with 1 pint per acre glyphosate on Nov. 19, 1998 and ½ pint (8 oz.) per acre on Mar. 2, 1999. The effect of the herbicide application on turf quality and on glyphosate damage is shown, using a scale of 1 to 9 as described for Table 3 (9: ideal quality; no disease; no glyphosate damage). In addition, the percent of damage due to herbicide application (which indicates yellowing, stunting, and death) is shown.

Tar Heel tall fescue = assay: as above; details: for Herbicide damage: scale 1-9, 9=no glyphosate damage; for Summer Stress: scale 1-9; for Turf quality (no herbicide): scale 1-9, 9=ideal quality
Experimental: as §1, §2, §3

Tomahawk E tall fescue = assay: as above; details: for Herbicide damage: scale 1-9, 9=no glyphosate damage; for Summer Stress: scale 1-9; for Turf quality (no herbicide): scale 1-9, 9=ideal quality
Experimental: as §1, §2, §3

Kentucky 31 tall fescue = assay: as above; details: for Herbicide damage: scale 1-9, 9=no glyphosate damage; for Summer Stress: scale 1-9; for Turf quality (no herbicide): scale 1-9, 9=ideal quality
Experimental: as §1, §2, §3

Pure Gold tall fescue = assay: as above; details: for Herbicide damage: scale 1-9, 9=no glyphosate damage; for Summer Stress: scale 1-9; for Turf quality (no herbicide): scale 1-9, 9=ideal quality
Experimental: as §1, §2, §3

5HU tall fescue = assay: as above; details: for Herbicide damage: scale 1-9, 9=no glyphosate damage; for Summer Stress: scale 1-9; for Turf quality (no herbicide): scale 1-9, 9=ideal quality
Experimental: as §1, §2, §3

Wolfpack tall fescue = assay: as above; details: for Herbicide damage: scale 1-9, 9=no glyphosate damage; for Summer Stress: scale 1-9; for Turf quality (no herbicide): scale 1-9, 9=ideal quality
Experimental: as §1, §2, §3

[3] = 1/2 pint (8 oz.) per acre sprayed Mar. 2, 1999, rated 1 April
[4] = 1/2 pint (8 oz.) per acre sprayed Mar. 2, 1999, rated 20 April
[5] = 1/2 pint (8 oz.) per acre sprayed Mar. 2, 1999, rated 24 Sept
[6] = 1/2 pint per acre of glyphosate herbicide (41% w/v glyphosate), field, January through September 1999
[7] = 1 pint per acre Nov. 19, 1998 and 1/2 pint per acre Mar. 2, 1999, rated 1 Apr
[8] = 1 pint per acre Nov. 19, 1998 and 1/2 pint per acre Mar. 2, 1999, rated 1 May
[9] = 1 pint per acre Nov. 19, 1998 and 1/2 pint per acre Mar. 2, 1999, rated 20 Apr
[10] = 1 pint per acre Nov. 19, 1998 and 1/2 pint per acre Mar. 2, 1999, rated 24 Sept
[11] = 1 pint per acre of agricultural formulation (about 0.056 g per square meter glyphosate)
[12] = 1 pint per acre sprayed Nov. 19, 1998, rated 2 Mar
[13] = 1 pint per acre sprayed Nov. 19, 1998, rated 26 Dec, % damage (yellowing, stunting, death)
[14] = 1 pint per acre sprayed Nov. 19, 1998, rated 26 Jan

## O=C(O)CNCP(=O)(O)O [Glyphosate, N-(phosphonomethyl) glycine]
[1]
  seedlings survived: 50%
[2]
  survivors: 5%
Tomahawk RT tall fescue; [3]
  Herbicide damage: 7.5
Tomahawk RT tall fescue; [4]
  Herbicide damage: 7.3
Tomahawk RT tall fescue; [5]
  Summer Stress: 6.5
Tomahawk RT tall fescue; [6]
  reduction in growth rate: no substantial reduction in growth rate
  yellowing of the grass: only minor amounts of yellowing
Tomahawk RT tall fescue; [7]
  Herbicide damage %: 72.5%
  Turf quality (no herbicide): 6.3
Tomahawk RT tall fescue; [8]
  Turf quality (no herbicide): 6.5
Tomahawk RT tall fescue; [9]
  Turf quality (no herbicide): 6.0
Tomahawk RT tall fescue; [10]
  Summer Stress: 7.8
Tomahawk RT tall fescue; [11]
  recovery of grass plants not killed: complete recovery
  yellowing and retardation of plant growth: more yellowing of the grasses and a substantial retardation of plant growth
Tomahawk RT tall fescue; [12]
  Herbicide damage: 5.3
Tomahawk RT tall fescue; [13]
  Herbicide damage %: 21.3%
Tomahawk RT tall fescue; [14]
  Turf quality (no herbicide): 4.3
  Herbicide damage: 5.3
Tomahawk RT tall fescue; ambient temperature of the plants below about 32° C.
  sensitivity to glyphosate herbicide applications: more sensitive
Tomahawk RT tall fescue; applied during the seedling stage, within the first 60-days of planting
  sensitivity to glyphosate: more sensitive
Tomahawk RT tall fescue; depending on time of year, age of the plants and environmental conditions
  tolerated application of agricultural formulations of glyphosate herbicide: up to 1 pint per acre
Tar Heel tall fescue; [3]
  Herbicide damage: 5.0
Tar Heel tall fescue; [4]
  Herbicide damage: 5.0
Tar Heel tall fescue; [5]
  Summer Stress: 7.0
Tar Heel tall fescue; [7]
  Herbicide damage %: 40.0%
  Turf quality (no herbicide): 3.0
Tar Heel tall fescue; [8]
  Turf quality (no herbicide): 5.0
Tar Heel tall fescue; [9]
  Turf quality (no herbicide): 4.0
Tar Heel tall fescue; [10]
  Summer Stress: 7.5
Tar Heel tall fescue; [12]
  Herbicide damage: 3.3
Tar Heel tall fescue; [13]
  Herbicide damage %: 76.3%
Tar Heel tall fescue; [14]
  Turf quality (no herbicide): 2.0
  Herbicide damage: 2.3
Tomahawk E tall fescue; [3]
  Herbicide damage: 4.3
Tomahawk E tall fescue; [4]
  Herbicide damage: 3.8
Tomahawk E tall fescue; [5]
  Summer Stress: 6.3
Tomahawk E tall fescue; [7]
  Herbicide damage %: 36.3%
  Turf quality (no herbicide): 2.8
Tomahawk E tall fescue; [8]
  Turf quality (no herbicide): 4.5
Tomahawk E tall fescue; [9]
  Turf quality (no herbicide): 3.5
Tomahawk E tall fescue; [10]
  Summer Stress: 7.3
Tomahawk E tall fescue; [12]
  Herbicide damage: 2.3
Tomahawk E tall fescue; [13]
  Herbicide damage %: 65.0%
Tomahawk E tall fescue; [14]
  Turf quality (no herbicide): 2.8
  Herbicide damage: 2.5
Kentucky 31 tall fescue; [3]
  Herbicide damage: 3.3
Kentucky 31 tall fescue; [4]
  Herbicide damage: 3.8
Kentucky 31 tall fescue; [5]
  Summer Stress: 4.5
Kentucky 31 tall fescue; [7]
  Herbicide damage %: 33.8%
  Turf quality (no herbicide): 2.0
Kentucky 31 tall fescue; [8]
  Turf quality (no herbicide): 4.0
Kentucky 31 tall fescue; [9]
  Turf quality (no herbicide): 3.3
Kentucky 31 tall fescue; [10]
  Summer Stress: 5.8
Kentucky 31 tall fescue; [12]
  Herbicide damage: 2.8
Kentucky 31 tall fescue; [13]
  Herbicide damage %: 75.0%
Kentucky 31 tall fescue; [14]
  Turf quality (no herbicide): 2.0
  Herbicide damage: 2.0
Pure Gold tall fescue; [3]
  Herbicide damage: 5.3
Pure Gold tall fescue; [4]
  Herbicide damage: 5.5
Pure Gold tall fescue; [5]
  Summer Stress: 5.3
Pure Gold tall fescue; [7]
  Herbicide damage %: 41.3%
  Turf quality (no herbicide): 3.8
Pure Gold tall fescue; [8]
  Turf quality (no herbicide): 4.8
Pure Gold tall fescue; [9]
  Turf quality (no herbicide): 3.8
Pure Gold tall fescue; [10]
  Summer Stress: 7.3
Pure Gold tall fescue; [12]
  Herbicide damage: 3.3
Pure Gold tall fescue; [13]
  Herbicide damage %: 33.8%
Pure Gold tall fescue; [14]
  Turf quality (no herbicide): 3.5
  Herbicide damage: 4.0
5HU tall fescue; [3]
  Herbicide damage: 5.3
5HU tall fescue; [4]
  Herbicide damage: 4.5
5HU tall fescue; [5]
  Summer Stress: 6.3
5HU tall fescue; [7]
  Herbicide damage %: 33.8%
  Turf quality (no herbicide): 2.8
5HU tall fescue; [8]
  Turf quality (no herbicide): 4.8
5HU tall fescue; [9]
  Turf quality (no herbicide): 3.8
5HU tall fescue; [10]
  Summer Stress: 7.0
5HU tall fescue; [12]
  Herbicide damage: 3.5
5HU tall fescue; [13]
  Herbicide damage %: 45.0%
5HU tall fescue; [14]
  Turf quality (no herbicide): 3.3
  Herbicide damage: 3.8
Wolfpack tall fescue; [3]
  Herbicide damage: 4.0
Wolfpack tall fescue; [4]
  Herbicide damage: 2.8
Wolfpack tall fescue; [5]
  Summer Stress: 5.5
Wolfpack tall fescue; [7]
  Herbicide damage %: 41.3%
  Turf quality (no herbicide): 3.3
Wolfpack tall fescue; [8]
  Turf quality (no herbicide): 4.8
Wolfpack tall fescue; [9]
  Turf quality (no herbicide): 4.5
Wolfpack tall fescue; [10]
  Summer Stress: 7.8
Wolfpack tall fescue; [12]
  Herbicide damage: 3.3
Wolfpack tall fescue; [13]
  Herbicide damage %: 52.5%
Wolfpack tall fescue; [14]
  Turf quality (no herbicide): 3.5
  Herbicide damage: 3.3
